Patent publication US7399868B2, “4-(Heteroaryl-methyl and substituted heteroaryl-methyl)-imidazole-2-thiones acting as alpha2 adrenergic agonists” (Allergan, Inc., priority 2004, dated 2008)

Legend:
[1] = target: T1, alpha2B adrenergic receptor (Homo sapiens, UniProt P18089); test: Receptor Selection and Amplification Technology (RSAT) assay, alpha2B; type: cell-based; details: ratio of maximal effect to that of standard full agonist brimonidine (UK14304)
T1 construct: expressed in transfected cells; host or cells: NIH-3T3
T1 sequence (P18089 1-450): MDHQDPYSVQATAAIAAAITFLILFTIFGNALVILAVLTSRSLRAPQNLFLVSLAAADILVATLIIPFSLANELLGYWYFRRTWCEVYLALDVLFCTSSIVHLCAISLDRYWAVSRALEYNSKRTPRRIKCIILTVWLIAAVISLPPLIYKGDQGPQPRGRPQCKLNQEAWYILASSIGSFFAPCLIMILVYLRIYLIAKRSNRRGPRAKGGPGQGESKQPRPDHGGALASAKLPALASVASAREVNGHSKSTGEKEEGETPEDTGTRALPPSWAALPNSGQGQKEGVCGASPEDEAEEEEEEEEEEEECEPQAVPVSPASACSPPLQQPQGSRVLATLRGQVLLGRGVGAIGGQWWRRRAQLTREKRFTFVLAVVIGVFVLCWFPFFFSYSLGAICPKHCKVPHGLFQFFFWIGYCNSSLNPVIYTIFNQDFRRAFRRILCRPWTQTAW
Source text: (§1) The imidazole-2-thione compounds of the invention are agonists of alpha2 adrenergic receptors. […] Al., 1995, Pharmacol. Toxicol. 76, pp. 308-311 (incorporated herein by reference) and is also described below. Another reference pertinent to this assay is Conklin et al. (1993) Nature 363:274-6, also incorporated herein by reference.
(§2) Receptor Selection and Amplification Technology (RSAT) Assay
The RSAT assay measures a receptor-mediated loss of contact inhibition that results in selective proliferation of receptor-containing cells in a mixed population of confluent cells. The increase in cell number is assessed with an appropriate transfected marker gene such as ∃-galactosidase, the activity of which can be easily measured in a 96-well format. Receptors that activate the G protein, Gq, elicit this response. Alpha2 receptors, which normally couple to Gi, activate the RSAT response when coexpressed with a hybrid Gq protein that has a Gi receptor recognition domain, called Gq/i5.
NIH-3T3 cells are plated at a density of 2×10^6 cells in 15 cm dishes and maintained in Dulbecco's modified Eagle's medium supplemented with 10% calf serum. One day later, cells are cotransfected by calcium phosphate precipitation with mammalian expression plasmids encoding p-SV-β-galactosidase (5-10 μg), receptor (1-2 μg) and G protein (1-2 μg). 40 μg salmon sperm DNA may also be included in the transfection mixture. Fresh media is added on the following day and 1-2 days later, cells are harvested and frozen in 50 assay aliquots. Cells are thawed and 100 μl added to 100 μl aliquots of various concentrations of drugs in triplicate in 96-well dishes. Incubations continue 72-96 hr at 37° C. After washing with phosphate-buffered saline, ∃-galactosidase enzyme activity is determined by adding 200 μl of the chromogenic substrate (consisting of 3.5 mM o-nitrophenyl-β-D-galactopyranoside and 0.5% nonidet P-40 in phosphate buffered saline), incubating overnight at 30° C. and measuring optical density at 420 nm. The absorbance is a measure of enzyme activity, which depends on cell number and reflects a receptor-mediated cell proliferation. The efficacy or intrinsic activity is calculated as a ratio of the maximal effect of the drug to the maximal effect of a standard full agonist for each receptor subtype. Brimonidine, also called UK14304, the chemical structure of which is shown below, is used as the standard agonist for the alpha2A, alpha2B and alpha2C receptors.
The results of the RSAT assay with several exemplary compounds of the invention are disclosed in Table 1 above together with the chemical formulas of these examplary compounds. NA stands for “not active” at concentrations less than 10 micromolar.

[2] = tested on: rats with ligated L5 and L6 spinal nerves; test: Chung model of neuropathic pain (tactile allodynia, von Frey hairs); type: in vivo, rat; details: 30 min following drug administration, p<0.001 compared to pretreatment
Source text: Alleviation of Chronic Pain
A model in accordance with Kim and Chung 1992, Pain […], pp 355-363 (Chung model), for chronic pain (in particular peripheral neuropathy) involves the surgical ligation of the L5 (and optionally the L6) spinal nerves on one side in experimental animals. Rats recovering from the surgery gain weight and display a level of general activity similar to that of normal rats. However, these rats develop abnormalities of the foot, wherein the hindpaw is moderately everted and the toes are held together. More importantly, the hindpaw on the side affected by the surgery appears to become sensitive to pain from low-threshold mechanical stimuli, such as that producing a faint sensation of touch in a human, within about 1 week following surgery. This sensitivity to normally non-painful touch is called “tactile allodynia” and lasts for at least two months. […]
Tactile allodynia is measured prior to and 30 minutes after drug administration using von Frey hairs that are a series of fine hairs with incremental differences in stiffness. […] The applied force has been calculated to range from 0.41 to 15.1 grams. […] The 50% paw withdrawal threshold is determined using the method of Dixon, W. J., Ann. […] The post-drug threshold is compared to the pre-drug threshold and the percent reversal of tactile sensitivity is calculated based on a normal threshold of 15.1 grams. […]

male Sprague-Dawley rats = test: Sedative activity (exploratory behavior/locomotor) in rats; type: in vivo, rat; details: intraperitoneally, up to a dose of 1 mg/kg
Protocol: To test sedation, six male Sprague-Dawley rats are given up to 3 mg/kg of the test compound in a saline or DMSO vehicle by intraperitoneal injection (i.p.). Sedation is graded 30 minutes following administration of the drug by monitoring locomotor skills as follows.
The Sprague-Dawley rats are weighed and 1 ml/kg body weight of an appropriate concentration (ie. 3 mg/ml for a final dose of 3 mg/kg) drug solution is injected intraperitoneally. Typically the test compound is formulated in approximately 10 to 50% DMSO. The results are compared to controls that are injected with 1 ml/kg saline or 10 to 50% DMSO. Rat activity is then determined 30 minutes after injection of the drug solution. Rats are placed in a dark covered chamber and a digicom analyzer (Omnitech Electronic) quantitates their exploratory behavior for a five-minute period. The machine records each time the rat interrupts an array of 32 photoelectric beams in the X and Y orientation.
Effects on Cardiovascular System

[3] = target: T2, alpha2C adrenergic receptor (Homo sapiens, UniProt P18825); test: Receptor Selection and Amplification Technology (RSAT) assay, alpha2C; type: cell-based; details: ratio of maximal effect to that of standard full agonist brimonidine (UK14304)
T2 construct: expressed in transfected cells; host or cells: NIH-3T3
T2 sequence (P18825 1-462): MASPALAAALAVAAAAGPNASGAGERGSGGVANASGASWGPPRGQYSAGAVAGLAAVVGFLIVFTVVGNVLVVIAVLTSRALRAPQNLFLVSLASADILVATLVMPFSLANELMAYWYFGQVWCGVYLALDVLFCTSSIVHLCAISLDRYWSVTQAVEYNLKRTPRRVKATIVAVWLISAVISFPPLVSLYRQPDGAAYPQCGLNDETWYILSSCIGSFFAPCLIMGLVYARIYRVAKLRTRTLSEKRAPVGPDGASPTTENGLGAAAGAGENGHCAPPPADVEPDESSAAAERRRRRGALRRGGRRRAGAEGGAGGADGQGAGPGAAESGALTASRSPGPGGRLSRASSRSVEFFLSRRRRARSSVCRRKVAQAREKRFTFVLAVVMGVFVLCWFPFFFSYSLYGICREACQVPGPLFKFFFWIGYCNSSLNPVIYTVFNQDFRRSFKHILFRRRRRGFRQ
Source text: as §1, §2
The RSAT assay measures a receptor-mediated loss of contact inhibition that results in selective proliferation of receptor-containing cells in a mixed population of confluent cells. The increase in cell number is assessed with an appropriate transfected marker gene such as ∃-galactosidase, the activity of which can be easily measured in a 96-well format. […]
NIH-3T3 cells are plated at a density of 2×10^6 cells in 15 cm dishes and maintained in Dulbecco's modified Eagle's medium supplemented with 10% calf serum. […] After washing with phosphate-buffered saline, ∃-galactosidase enzyme activity is determined by adding 200 μl of the chromogenic substrate (consisting of 3.5 mM o-nitrophenyl-β-D-galactopyranoside and 0.5% nonidet P-40 in phosphate buffered saline), incubating overnight at 30° C. and measuring optical density at 420 nm. The absorbance is a measure of enzyme activity, which depends on cell number and reflects a receptor-mediated cell proliferation. […]

SMILES | Intrinsic Activity Alpha 2B [1] | also measured
S=c1[nH]cc(Cn2ccc3ccc(Cl)c(Cl)c32)[nH]1 [Compound 6, 4-(6,7-Dichloro-indol-1-ylmethyl)-1,3-dihydro-imidazole-2-thione] | 0.98 | 
CC(c1c[nH]c(=S)[nH]1)c1coc2ccccc12 (stereo not drawn) [Compound 14, 4-(1-benzofuran-3-yl-ethyl)-1,3-dihydro-imidazole-2-thione] | 1.0 | % Pain Reversal ([2]; 30 μg/kg i.p.): 20%; % Pain Reversal ([2]; 300 μg/kg i.p.): 80%
S=c1[nH]cc(CN2CCCc3ccccc32)[nH]1 [Compound 11, 4-(3,4-dihydro-2H-quinolin-1-ylmethyl)-1,3-dihydro-imidazole-2-thione] | 1.13 | 
S=c1[nH]cc(Cn2ccc3ccnc(Cl)c32)[nH]1 [Compound 7, 4-(7-chloro-pyrrolo[2,3-c]pyridin-1-ylmethyl)-1,3-dihydro-imidazole-2-thione] | 1.5 | 
S=c1[nH]cc(Cn2ccc3ccc(Cl)nc32)[nH]1 [Compound 8, 4-(6-Chloro-pyrrolo[2,3-b]pyridin-1-ylmethyl)-1,3-dihydro-imidazole-2-thione] | 0.76 | 
S=c1[nH]cc(Cn2ccc3c(Cl)cccc32)[nH]1 [Compound 1, 4-(4-chloro-indol-1-ylmethyl)-1,3-dihydro-imidazole-2-thione] | 1.17 | 
CC(c1c[nH]c(=S)[nH]1)c1ccnc2c1CCCC2 (stereo not drawn) [Compound 12, 4-[1-(5,6,7,8-tetrahydro-quinolin-4-yl)-ethyl]-1,3-dihydro-imidazole-2-thione] | 0.99 | 
S=c1[nH]cc(Cn2ccc3cccc(Br)c32)[nH]1 [Compound 5, 4-(7-Bromo-indol-1-ylmethyl)-1,3-dihydro-imidazole-2-thione] | 1.01 | sedative effect (male Sprague-Dawley rats): no sedative effect; Intrinsic Activity Alpha 2C [3]: 0.77
Cc1cccc2ccn(Cc3c[nH]c(=S)[nH]3)c12 [Compound 2, 4-(7-methyl-indol-1-ylmethyl)-1,3-dihydro-imidazole-2-thione] | 1.01 | 
S=c1[nH]cc(Cn2ccc3cccc(Cl)c32)[nH]1 [Compound 4, 4-(7-chloro-indol-1-ylmethyl)-1,3-dihydro-imidazole-2-thione] | 1.17 | 
Fc1cccc2ccn(Cc3c[nH]c(=S)[nH]3)c12 [Compound 3, 4-(7-fluoro-indol-1-ylmethyl)-1,3-dihydro-imidazole-2-thione] | 1.07 | sedative effect (male Sprague-Dawley rats): no sedative effect
S=c1[nH]cc(Cc2cccs2)[nH]1 [Compound 10, 4-thiophen-2-ylmethyl-1,3-dihydro-imidazole-2-thione] | 1.09 | 
Cc1cccc(C(C)c2c[nH]c(=S)[nH]2)n1 (stereo not drawn) [Compound 9, 4-[1-(6-methyl-pyridin-2-yl)-ethyl]-1,3-dihydro-imidazole-2-thione] | 1.16 | 
